{
  "source": "patent US10913757B2",
  "about": "“Hydroxycinnamic derivatives, methods and uses thereof” (UNIVERSIDADE DO PORTO, priority 2016, dated 2021)",
  "key": {"[1]": {"test": "Redox properties by differential pulse and cyclic voltammetry", "assay_type": "physicochemical", "summary_of_the_method": "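Compounds were run at 0.1 mM final (from ethanol stock) in phosphate supporting electrolyte at room temperature, using a glassy carbon working, Pt counter and Ag/AgCl reference electrode. CV was at 50 mV s^−1; DPV used a 4 mV step, 50 mV pulse amplitude and 8 mV s^−1. Ep is the oxidation peak potential.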"}, "[2]": {"system": "rat liver mitochondria (RLM)", "test": "Mitochondrial respiration of isolated RLM (Clark-type oxygen electrode)", "assay_type": "biochemical", "summary_of_the_method": "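O2 uptake was recorded with a Clark electrode through state 2, ADP-driven state 3, state 4, oligomycin (2 μg/ml) and FCCP (1 μM). RCR and ADP/O were calculated.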"}, "[3]": {"system": "rat liver mitochondria (RLM)", "test": "Mitochondrial transmembrane electric potential (ΔΨ) of RLM, safranine fluorescence", "assay_type": "biochemical", "summary_of_the_method": "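Rat liver mitochondria; ΔΨ by safranine fluorescence, compounds up to 10 μM, FCCP 1 μM added at end to depolarize. ΔΨ derived from a valinomycin K^+ calibration curve in sucrose/phosphate/Tris pH 7.4 medium; repolarization and lag phase after ADP phosphorylation recorded; means±SEM, n=5.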"}},
  "data": [
    {"smiles": "CS(=O)(=O)[O-].O=C(/C=C/c1cc(O)c(O)c(O)c1)NCCCCCCCCCC[P+](c1ccccc1)(c1ccccc1)c1ccccc1", "note": "[AntiOxCIN7, (E)-(10-(3-(3,4,5-trihydroxyphenyl)acrylamido)decyl)triphenylphosphonium methanesulfonate]", "values": [
      {"measurement": "reversibility of the oxidation reaction", "setting": "[1]; cyclic voltammetry, physiological pH", "result": "irreversible oxidation reaction"},
      {"measurement": "Ep (redox potential)", "setting": "[1]; physiological pH (7.4), voltammetry, listed as AntiOxClN7, methanesulfonate", "result": 0.057, "unit": "V"},
      {"measurement": "effect on state 3 respiration", "setting": "[2]; all tested concentrations (2.5-10 μM), FIG. 6B-H", "result": "increase"},
      {"measurement": "ADP/O", "setting": "[2]; glutamate/malate, 2.5 μM", "result": "2.8 ± 0.3"},
      {"measurement": "RCR (respiratory control ratio, state 3/state 4)", "setting": "[2]; glutamate/malate, 2.5 μM", "result": "3.6 ± 0.2"},
      {"measurement": "ADP/O", "setting": "[2]; glutamate/malate, 5 μM", "result": "2.4 ± 0.1"},
      {"measurement": "RCR (respiratory control ratio, state 3/state 4)", "setting": "[2]; glutamate/malate, 5 μM", "result": "3.5 ± 0.3"},
      {"measurement": "ADP/O", "setting": "[2]; glutamate/malate, 10 μM", "result": "2.6 ± 0.1"},
      {"measurement": "RCR (respiratory control ratio, state 3/state 4)", "setting": "[2]; glutamate/malate, 10 μM", "result": "3.3 ± 0.3"},
      {"measurement": "ADP/O", "setting": "[2]; succinate, 2.5 μM", "result": "1.8 ± 0.2"},
      {"measurement": "RCR (respiratory control ratio, state 3/state 4)", "setting": "[2]; succinate, 2.5 μM", "result": "4.1 ± 0.4"},
      {"measurement": "ADP/O", "setting": "[2]; succinate, 5 μM", "result": "1.8 ± 0.2"},
      {"measurement": "RCR (respiratory control ratio, state 3/state 4)", "setting": "[2]; succinate, 5 μM", "result": "3.1 ± 0.2"},
      {"measurement": "ADP/O", "setting": "[2]; succinate, 10 μM", "result": "1.7 ± 0.2"},
      {"measurement": "RCR (respiratory control ratio, state 3/state 4)", "setting": "[2]; succinate, 10 μM", "result": "3.7 ± 0.3"},
      {"measurement": "initial slight hyperpolarization", "setting": "[3]; 2.5 μM", "result": 25, "unit": "mV"},
      {"measurement": "ΔΨ in succinate-energized mitochondria", "setting": "[3]; AntiOxCIN6 above 5 μM, AntiOxCIN7 10 μM", "result": "significant decrease of ΔΨ"},
      {"measurement": "ADP-induced depolarization (ΔΨ in - mV)", "setting": "[3]; glutamate/malate, 2.5 μM", "result": "212.2 ± 7.9", "unit": "mV"},
      {"measurement": "Lag Phase", "setting": "[3]; glutamate/malate, 2.5 μM", "result": "73.4 ± 8.4", "unit": "s"},
      {"measurement": "Maximum potential (ΔΨ in - mV)", "setting": "[3]; glutamate/malate, 2.5 μM", "result": "251.8 ± 8.7", "unit": "mV"},
      {"measurement": "Repolarization Potential (ΔΨ in - mV)", "setting": "[3]; glutamate/malate, 2.5 μM", "result": "248.3 ± 8.3", "unit": "mV"},
      {"measurement": "ADP-induced depolarization (ΔΨ in - mV)", "setting": "[3]; glutamate/malate, 5 μM", "result": "212.6 ± 3.2", "unit": "mV"},
      {"measurement": "Lag Phase", "setting": "[3]; glutamate/malate, 5 μM", "result": "71.0 ± 10.7", "unit": "s"},
      {"measurement": "Maximum potential (ΔΨ in - mV)", "setting": "[3]; glutamate/malate, 5 μM", "result": "248.1 ± 3.3", "unit": "mV"},
      {"measurement": "Repolarization Potential (ΔΨ in - mV)", "setting": "[3]; glutamate/malate, 5 μM", "result": "243.5 ± 5.0", "unit": "mV"},
      {"measurement": "ADP-induced depolarization (ΔΨ in - mV)", "setting": "[3]; glutamate/malate, 10 μM", "result": "197.1 ± 11.8", "unit": "mV"},
      {"measurement": "Lag Phase", "setting": "[3]; glutamate/malate, 10 μM", "result": "58.6 ± 5.4", "unit": "s"},
      {"measurement": "Maximum potential (ΔΨ in - mV)", "setting": "[3]; glutamate/malate, 10 μM", "result": "232.1 ± 9.2", "unit": "mV"},
      {"measurement": "Repolarization Potential (ΔΨ in - mV)", "setting": "[3]; glutamate/malate, 10 μM", "result": "212.6 ± 18.4", "unit": "mV"},
      {"measurement": "ADP-induced depolarization (ΔΨ in - mV)", "setting": "[3]; succinate, 2.5 μM", "result": "183.8 ± 6.0", "unit": "mV"},
      {"measurement": "Lag Phase", "setting": "[3]; succinate, 2.5 μM", "result": "80.0 ± 14.9", "unit": "s"},
      {"measurement": "Maximum potential (ΔΨ in - mV)", "setting": "[3]; succinate, 2.5 μM", "result": "205.3 ± 7.3", "unit": "mV"},
      {"measurement": "Repolarization Potential (ΔΨ in - mV)", "setting": "[3]; succinate, 2.5 μM", "result": "199.4 ± 7.1", "unit": "mV"},
      {"measurement": "ADP-induced depolarization (ΔΨ in - mV)", "setting": "[3]; succinate, 5 μM", "result": "176.2 ± 8.7", "unit": "mV"},
      {"measurement": "Lag Phase", "setting": "[3]; succinate, 5 μM", "result": "76.0 ± 9.6", "unit": "s"},
      {"measurement": "Maximum potential (ΔΨ in - mV)", "setting": "[3]; succinate, 5 μM", "result": "191.1 ± 9.0", "unit": "mV"},
      {"measurement": "Repolarization Potential (ΔΨ in - mV)", "setting": "[3]; succinate, 5 μM", "result": "186.8 ± 7.5", "unit": "mV"},
      {"measurement": "ADP-induced depolarization (ΔΨ in - mV)", "setting": "[3]; succinate, 10 μM", "result": "163.6 ± 3.2", "unit": "mV"},
      {"measurement": "Lag Phase", "setting": "[3]; succinate, 10 μM", "result": "65.0 ± 8.7", "unit": "s"},
      {"measurement": "Maximum potential (ΔΨ in - mV)", "setting": "[3]; succinate, 10 μM", "result": "176.9 ± 3.1", "unit": "mV"},
      {"measurement": "Repolarization Potential (ΔΨ in - mV)", "setting": "[3]; succinate, 10 μM", "result": "171.0 ± 5.0", "unit": "mV"}
    ]}
  ]
}
